# From patent publication US10829493B2, “Compositions and methods for treating KIT- and PDGFRA-mediated diseases” (Blueprint Medicines Corporation, priority 2019, dated 2020)
# Read-outs that look alike come from different tables or passages of the source.
# Key:
# [1] = Pharmacokinetics following single intravenous and oral administration in rats; assay type: in vivo, Sprague-Dawley rats
# Procedure: Assessment of pharmacokinetics following single intravenous and oral administration in rats: 3 Sprague-Dawley rats were employed for each compound for each route of administration (iv or oral). For iv administration, 1 mg/kg (dose volume=5 mL/kg) of each compound was administered by intravenous route via […] injection; whereas for oral route, 2.5 mg/kg (dose volume=5 mL/kg) was administered via oral gavage. Blood samples were obtained via tail vein at predose, 0.083, 0.25, 0.5, 1, 2, 4 and 8 hr. In addition, blood samples were also obtained at 24 hr via cardiac puncture (under anesthesia with Isoflurane) for terminal bleeding. All the blood samples were analyzed for the drug concentrations via LC/MS-MS. Pharmacokinetic parameters such as Cmax, Tmax, AUClast, AUCinf, MRTlast, MRTinf, T1/2, Vss and CL were obtained by non-compartmental analysis (NCA). Further, unbound clearance (CLu) was obtained as follows: Clu=Cl/fu,plasma.
# % F was calculated as follows: % F=[AUCinf(oral)/Dose]/[AUCinf(iv)/Dose]*100 (Zhivkova & Doytchinova, Molecular Pharmaceuticals 10:3758-68 (2013)).
# CYP2D6 = CYP2D6 (Homo sapiens (Human), UniProt P10635); experiment: CYP inhibition in human liver microsomes, CYP2D6 (dextromethorphan); assay type: in vitro ADME; conditions: pooled human liver microsomes, substrate dextromethorphan
# Procedure: (§1) In vitro studies in human liver microsomes were run according the standard method. […] The samples were then analyzed by LC-MS/MS for the quantification of the probe substrate left after the reaction and the IC50 values were determined by non-linear regression. The substrates for CYP2C9, CYP2D6, CYP3A4 were diclofenac, dextromethorphan and midazolam/testosterone respectively.
# CYP2C9 = CYP2C9 (Homo sapiens (Human), UniProt P11712); experiment: CYP inhibition in human liver microsomes, CYP2C9 (diclofenac); assay type: in vitro ADME; conditions: pooled human liver microsomes, substrate diclofenac
# Procedure: as §1
# CYP3A4 = CYP3A4 (Homo sapiens (Human), UniProt P08684); experiment: CYP inhibition in human liver microsomes, CYP3A4 (midazolam/testosterone); assay type: in vitro ADME
# Procedure: as §1
# KIT D816V = KIT D816V (Homo sapiens (Human), UniProt P10721, D816V); experiment: KIT D816V biochemical enzymatic activity assay (EZReader 2 mobility shift); conditions: at APPKM for ATP, 20 μM ATP, 60 minutes
# Excerpt: (§2) PDGFRα and KIT enzymatic activity was monitored using the Perkin Elmer electrophoretic mobility shift technology platform, the EZReader 2.
# (§3) Within the linear, steady-state phase of the kinase enzymatic reaction, the mixed pool of phosphorylated (product) and non-phosphorylated (substrate) peptides was passed through the microfluidic system of the PerkinElmer EZ Reader 2, under an applied electric potential difference. The presence of the phosphate group on the product peptide provided a difference in mass and charge between that of the substrate peptide, resulting in a separation of the substrate and product pools in the sample (Perrin et al., Expert Opin Drug Discovery 2010 Jan. 5(1):51-63).
# (§4) As the product and substrate peptide mixture passes the lasers within the instrument, these pools are detected (λex=488 nm, λem=568 nm) and resolved as separate peaks. The ratio between these peaks reflects the activity of the compound at that concentration, in that well, under those conditions.
# (§5) All test articles were dissolved in 100% DMSO at a stock concentration of 10 mM. A 100×, 10-point, 4-fold serial dilution of all test compounds was created in 100% DMSO, starting at a relevant concentration, usually 1 mM. A volume of 0.130 μL of each concentration was transferred to the relevant well of a 384-well assay plate (Greiner 781 201) using a TTPLabtech Mosquito nano-liter dispenser. Using the Multidrop, the remaining constituents of the reaction were then added to the 0.130 μL of compound as follows:
# The plate was read on a Caliper EZReader 2.
# PDGFRα D842V = PDGFRα D842V (Homo sapiens (Human), UniProt P16234, D842V); experiment: PDGFRα D842V biochemical enzymatic activity assay (EZReader 2 mobility shift); conditions: at APPKM for ATP, 25 μM ATP, 90 minutes
# Excerpt: as §2, §3, §4
# Inhibition of KIT (D816V) PDGFRα (D842V) Mutant Biochemical Enzymatic Activity
# as §5
# The reaction was stopped by the addition of 70 μl of Stop buffer (100 mM HEPES pH 7.5, 0.015% Brij 35, 35 mM EDTA and 0.2% of Coating Reagent 3, Caliper Lifesciences). The plate was read on a Caliper EZReader 2.
# wt KIT kinase = wt KIT kinase (Homo sapiens (Human), UniProt P10721); experiment: Wild-type KIT binding assay (Kd determination, phage-tagged kinase, qPCR)
# Procedure: Kd Determinations. For most assays, including wt KIT kinase, kinase-tagged T7 phage strains were prepared in an E. coli host derived from the BL21 strain. E. coli were grown to log-phase and infected with T7 phage and incubated with shaking at 32° C. until lysis. […] The liganded beads were blocked with excess biotin and washed with blocking buffer (SeaBlock (Pierce), 1% BSA, 0.05% Tween 20, 1 mM DTT) to remove unbound ligand and to reduce non-specific binding. […] Test compounds were prepared as 111× stocks in 100% DMSO. Kds were determined using an 11-point 3-fold compound dilution series with three DMSO control points. […] The compounds were then diluted directly into the assays such that the final concentration of DMSO was 0.9%. All reactions were performed in polypropylene 384-well plate. Each was a final volume of 0.02 ml. […] The kinase concentration in the eluates was measured by qPCR.
# Binding Constants (Kds). Binding constants (Kds) were calculated with a standard dose-response curve using the Hill equation: Response=Background+Signal−Background 1+(KdHill Slope/DoseHill Slope). The Hill Slope was set to −1. Curves were fitted using a non-linear least square fit with the Levenberg-Marquardt algorithm.
# Chain of CYP3A4 (P08684 whole entry): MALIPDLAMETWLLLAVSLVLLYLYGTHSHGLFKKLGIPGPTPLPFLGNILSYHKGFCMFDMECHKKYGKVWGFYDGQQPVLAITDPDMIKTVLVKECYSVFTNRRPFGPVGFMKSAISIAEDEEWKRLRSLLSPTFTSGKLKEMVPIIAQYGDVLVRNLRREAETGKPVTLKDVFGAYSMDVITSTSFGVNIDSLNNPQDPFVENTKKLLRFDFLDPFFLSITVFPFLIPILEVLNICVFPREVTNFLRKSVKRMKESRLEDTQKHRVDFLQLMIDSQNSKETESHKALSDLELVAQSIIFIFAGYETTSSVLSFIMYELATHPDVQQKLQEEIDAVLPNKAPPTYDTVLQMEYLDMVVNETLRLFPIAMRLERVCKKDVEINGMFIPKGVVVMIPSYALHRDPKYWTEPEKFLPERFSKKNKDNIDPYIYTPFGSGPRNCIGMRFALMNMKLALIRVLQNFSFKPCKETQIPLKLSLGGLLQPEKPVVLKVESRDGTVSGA
# Chain of wt KIT kinase (P10721 26-976): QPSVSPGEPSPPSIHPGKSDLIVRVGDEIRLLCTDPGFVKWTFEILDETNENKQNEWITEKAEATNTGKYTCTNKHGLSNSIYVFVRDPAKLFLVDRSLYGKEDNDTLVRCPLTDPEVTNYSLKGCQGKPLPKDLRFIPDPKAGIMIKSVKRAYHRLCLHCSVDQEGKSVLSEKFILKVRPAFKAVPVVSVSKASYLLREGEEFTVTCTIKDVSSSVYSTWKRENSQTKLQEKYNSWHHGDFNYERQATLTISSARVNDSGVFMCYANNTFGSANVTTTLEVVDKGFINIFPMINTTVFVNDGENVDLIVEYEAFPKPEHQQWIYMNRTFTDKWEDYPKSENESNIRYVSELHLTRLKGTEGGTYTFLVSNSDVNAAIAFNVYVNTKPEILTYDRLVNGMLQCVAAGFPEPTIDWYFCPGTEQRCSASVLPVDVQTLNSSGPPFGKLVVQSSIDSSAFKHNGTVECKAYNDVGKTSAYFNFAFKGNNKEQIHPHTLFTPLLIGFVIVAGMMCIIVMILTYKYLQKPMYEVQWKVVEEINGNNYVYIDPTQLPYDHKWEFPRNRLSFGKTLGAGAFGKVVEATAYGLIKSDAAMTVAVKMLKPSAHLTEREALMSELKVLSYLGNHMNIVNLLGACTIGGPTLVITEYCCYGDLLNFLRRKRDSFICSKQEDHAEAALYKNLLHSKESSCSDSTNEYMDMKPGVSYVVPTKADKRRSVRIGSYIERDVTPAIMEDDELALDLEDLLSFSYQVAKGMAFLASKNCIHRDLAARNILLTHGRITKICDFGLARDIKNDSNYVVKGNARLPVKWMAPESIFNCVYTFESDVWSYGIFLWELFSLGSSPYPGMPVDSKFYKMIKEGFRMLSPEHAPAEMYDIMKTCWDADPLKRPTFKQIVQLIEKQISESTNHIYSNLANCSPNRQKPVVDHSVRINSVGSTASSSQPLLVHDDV
# Chain of CYP2D6 (P10635 whole entry): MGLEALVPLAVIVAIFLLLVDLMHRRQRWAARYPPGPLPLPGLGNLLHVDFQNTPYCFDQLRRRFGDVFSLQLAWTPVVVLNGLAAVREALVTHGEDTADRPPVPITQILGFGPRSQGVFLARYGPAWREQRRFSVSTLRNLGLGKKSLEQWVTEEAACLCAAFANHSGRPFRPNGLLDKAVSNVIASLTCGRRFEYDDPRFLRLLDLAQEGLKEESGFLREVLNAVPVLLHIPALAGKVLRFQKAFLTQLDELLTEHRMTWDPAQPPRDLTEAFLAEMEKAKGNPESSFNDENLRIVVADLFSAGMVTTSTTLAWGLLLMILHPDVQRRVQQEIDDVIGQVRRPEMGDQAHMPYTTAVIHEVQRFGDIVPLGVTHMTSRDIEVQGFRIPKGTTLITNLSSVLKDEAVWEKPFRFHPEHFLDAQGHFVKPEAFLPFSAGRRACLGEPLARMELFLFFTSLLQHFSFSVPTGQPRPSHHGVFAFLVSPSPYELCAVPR
# Chain of PDGFRα D842V (P16234 24-1089 D842V): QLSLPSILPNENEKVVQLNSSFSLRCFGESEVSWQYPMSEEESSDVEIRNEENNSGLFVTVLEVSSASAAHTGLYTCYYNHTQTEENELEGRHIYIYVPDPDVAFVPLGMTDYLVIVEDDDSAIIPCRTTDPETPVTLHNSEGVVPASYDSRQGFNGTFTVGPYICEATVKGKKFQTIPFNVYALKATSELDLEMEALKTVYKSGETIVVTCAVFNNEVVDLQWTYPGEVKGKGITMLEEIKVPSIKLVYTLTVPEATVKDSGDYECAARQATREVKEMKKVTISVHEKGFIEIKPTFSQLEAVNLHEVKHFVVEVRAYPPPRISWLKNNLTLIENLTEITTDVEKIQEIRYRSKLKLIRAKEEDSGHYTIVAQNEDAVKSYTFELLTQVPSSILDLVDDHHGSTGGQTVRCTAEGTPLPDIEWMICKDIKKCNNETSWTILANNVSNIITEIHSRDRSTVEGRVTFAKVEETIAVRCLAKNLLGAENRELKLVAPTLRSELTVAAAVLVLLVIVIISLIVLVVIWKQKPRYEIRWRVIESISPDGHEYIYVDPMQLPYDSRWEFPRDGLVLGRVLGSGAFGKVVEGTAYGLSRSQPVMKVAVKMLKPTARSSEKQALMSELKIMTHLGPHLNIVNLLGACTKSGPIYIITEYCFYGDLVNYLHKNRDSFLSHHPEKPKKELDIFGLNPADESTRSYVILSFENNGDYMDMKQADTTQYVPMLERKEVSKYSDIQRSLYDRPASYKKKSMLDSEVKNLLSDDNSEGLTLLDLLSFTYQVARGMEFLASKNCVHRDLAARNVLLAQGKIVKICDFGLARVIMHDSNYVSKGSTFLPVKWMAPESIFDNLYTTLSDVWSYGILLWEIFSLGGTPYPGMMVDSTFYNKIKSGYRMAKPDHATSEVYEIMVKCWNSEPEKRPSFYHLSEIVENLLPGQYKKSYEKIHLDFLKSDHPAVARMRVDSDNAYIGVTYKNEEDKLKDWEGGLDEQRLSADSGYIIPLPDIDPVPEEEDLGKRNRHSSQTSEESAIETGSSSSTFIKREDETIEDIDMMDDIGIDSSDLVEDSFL
# Chain of KIT D816V (P10721 26-976 D816V): as the sequence (P10721 26-976) above, with D791V counted along it
# Chain of CYP2C9 (P11712 whole entry): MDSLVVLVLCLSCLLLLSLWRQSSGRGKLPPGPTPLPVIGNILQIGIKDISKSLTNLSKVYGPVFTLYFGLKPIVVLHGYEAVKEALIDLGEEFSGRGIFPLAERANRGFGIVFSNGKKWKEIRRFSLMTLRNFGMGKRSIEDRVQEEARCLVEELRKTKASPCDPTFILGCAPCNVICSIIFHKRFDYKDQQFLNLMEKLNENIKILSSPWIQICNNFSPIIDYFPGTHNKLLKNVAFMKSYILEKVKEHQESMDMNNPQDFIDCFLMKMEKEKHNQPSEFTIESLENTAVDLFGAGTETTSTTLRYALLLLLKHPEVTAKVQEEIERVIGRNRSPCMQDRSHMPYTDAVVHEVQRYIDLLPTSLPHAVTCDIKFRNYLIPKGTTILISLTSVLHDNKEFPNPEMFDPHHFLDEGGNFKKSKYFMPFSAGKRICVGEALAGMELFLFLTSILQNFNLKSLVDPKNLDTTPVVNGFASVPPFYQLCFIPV
"clearance ([1]; Sprague-Dawley, blood, rat, iv 1 mg/kg, read-out: Rat IV PK Cl)","bioavailability ([1]; Sprague-Dawley, blood, rat, oral 2.5 mg/kg vs iv 1 mg/kg)","Rat IV PK unbound clearance (Clu) ([1]; iv 1 mg/kg, Clu=Cl/fu,plasma)",IC50 (CYP2D6),IC50 (CYP2C9),"IC50 (CYP3A4; as measured according to Example 5, substrate not stated (embodiment 14), read-out: IC50 for CYP3A4)","IC50 (CYP3A4; pooled human liver microsomes, substrate midazolam, read-out: CYP3A4 IC50 (μM) midazolam)","IC50 (CYP3A4; pooled human liver microsomes, substrate testosterone, read-out: CYP3A4 IC50 (μM) testosterone)",IC50 (KIT D816V),IC50 (PDGFRα D842V),Kd (wt KIT kinase),SMILES
12 mL/min/kg,80%,582 mL/min/kg,10 µM,7.13 µM,< 10 µM,≥ 10 µM,≥ 10 µM,–,–,–,"C[C@](N)(c1ccc(F)cc1)c1cnc(N2CCN(c3ncnn4cc(-c5cnn(CCO)c5)cc34)CC2)nc1 [Compound 4, (S)-2-(4-(4-(4-(5-(1-amino-1-(4-fluorophenyl)ethyl)pyrimidin-2-yl)piperazin-1-yl)pyrrolo[2,1-f][1,2,4]triazin-6-yl)-1H-pyrazol-1-yl)ethanol]"
–,–,–,–,–,–,–,–,≤ 0.0003 µM,≤ 0.0003 µM,0.0151 to 0.02 µM,"CCn1cc(-c2cc3c(N4CCN(c5ncc([C@@](C)(N)c6ccc(F)cc6)cn5)CC4)ncnn3c2)cn1 [Compound 63, reference compound]"
